Measured values: patent US3968231A, “4-Aryl-1,2,3,4-tetrahydropyrrolo(3,4-b)indoles for treating schizophrenic manifestations” (Bayer Aktiengesellschaft, priority 1975, dated 1976)
Like-named read-outs stand apart in the source and are kept apart here.

System: amphetamine-induced symptoms
Test: antagonism of amphetamine-induced symptoms in rats (block of d-amphetamine cage movement, rating scale)
Type: in vivo
Conditions: Rattus norvegicus, ip, i.p. test compound, rated one hour after amphetamine
From the text: The tranquilizing agents of the present invention are characterized by relief of such schizophrenic manifestations in humans as hallucinations, hostility, suspiciousness, emotional and social withdrawal, anxiety, agitation and tension. Standard procedures of detecting and comparing tranquilizing activity of compounds in this series and for which there is an excellent correlation with human efficacy is the antagonism of amphetamine-induced symptoms in rats test as taught by A. Weissman, et al., J. Pharmacol. Exp. Ther., 151, 339 (1966) and by Quinton, et al., Nature, 200, 178 (1963).
The effects of the compounds of the present invention on prominent amphetamine-induced symptoms were studied in rats by a rating scale modeled after the one reported by Quinton and Halliwell, and Weissman. Groups of five rats were placed in a covered plastic cage measuring approximately 26 cm. × 42 cm. × 16 cm. After a brief period of acclimation in the cage, the rats in each group were treated intraperitoneally (i.p.) with the test compound. […] On the basis of dose-response data after amphetamine it was possible to determine the effective dose of the compound necessary to antagonize or block the characteristic amphetamine behavior of cage movement for fifty percent of the rats tested (ED50). The time of rating chosen coincides with the peak action of amphetamine which is 60-80 min. after treatment with this agent.
Employing the above-described procedure, the following compounds were tested for their ability to block the behavior effects of amphetamine, the results being reported as the ED50 in mg./kg. at the indicated times: ##SPC25##

[1] = d-amphetamine sulfate 5 mg./kg. i.p. 1 hr. later, read-out: ED50 (dose antagonizing/blocking characteristic amphetamine cage movement in fifty percent of rats), 1 hr.
[2] = d-amphetamine sulfate 5 mg./kg. i.p. 5 hrs. later, read-out: ED50 (dose antagonizing/blocking characteristic amphetamine cage movement in fifty percent of rats), 5 hrs.

Row | SMILES | ED50 [1] | ED50 [2]
1 | Cl.OC(CCCN1Cc2c(n(-c3ccc(F)cc3)c3ccc(F)cc23)C1)c1ccc(F)cc1 (centres unmarked) [F F p-FC6 H4 CH(CH2)3 --, 7-Fluoro-4-(p-fluorophenyl)-2-[4-(p-fluorophenyl)-4-hydroxybutyl]-1,2,3,4-tetrahydropyrrolo[3,4-b]indole hydrochloride] | 1 to 3.2 mg/kg | 1 to 3.2 mg/kg
2 | CN1Cc2c(n(-c3ccc(F)cc3)c3ccc(F)cc23)C1 [F F CH3, 7-Fluoro-4-(p-fluorophenyl)-2-methyl-1,2,3,4-tetrahydropyrrolo[3,4-b]indole] | 3.2 to 5.6 mg/kg | > 10 mg/kg
3 | CN(C)CCCN1c2ccccc2Sc2ccc(Cl)cc21 [chlorpromazine, reference compound] | > 10 mg/kg | –
